Values after ≈ are worked out from the molar mass of the structure shown.
How the values were obtained:
Assay type in all cases: functional
Streptococcus pyogenes [1] = assay: Antimicrobial activity against Streptococcus pyogenes MTCC 442 assessed as diameter of growth inhibition zone at 250 ug/ml after 18-24 hr by agar cup diffusion method; conditions: read-out: DIZ
Streptococcus pyogenes [2] = assay: Antimicrobial activity against Streptococcus pyogenes MTCC 442 assessed as diameter of growth inhibition zone at 100 ug/ml after 18-24 hr by agar cup diffusion method; conditions: read-out: DIZ
Penicillium [3] = assay: Antimicrobial activity against Penicillium wild strain by agar cup diffusion method
Trichophyton rubrum [4] = assay: Antimicrobial activity against Trichophyton rubrum MTCC 296 assessed as diameter of growth inhibition zone at 250 ug/ml after 48-96 hr by agar cup diffusion method; conditions: read-out: DIZ
Klebsiella pneumoniae [5] = assay: Antimicrobial activity against Klebsiella pneumoniae MTCC 109 assessed as diameter of growth inhibition zone at 25 ug/ml after 18-24 hr by agar cup diffusion method; conditions: read-out: DIZ
Aspergillus clavatus [6] = assay: Antimicrobial activity against Aspergillus clavatus MTCC 1323 by agar cup diffusion method
Aspergillus clavatus [7] = assay: Antimicrobial activity against Aspergillus clavatus MTCC 1323 assessed as diameter of growth inhibition zone at 250 ug/ml after 48-96 hr by agar cup diffusion method; conditions: read-out: DIZ
Streptococcus pyogenes [8] = assay: Antimicrobial activity against Streptococcus pyogenes MTCC 442 assessed as diameter of growth inhibition zone at 25 ug/ml after 18-24 hr by agar cup diffusion method; conditions: read-out: DIZ
Candida albicans [9] = assay: Antimicrobial activity against Candida albicans MTCC 227 assessed as diameter of growth inhibition zone at 250 ug/ml after 48-96 hr by agar cup diffusion method; conditions: read-out: DIZ
Trichophyton rubrum [10] = assay: Antimicrobial activity against Trichophyton rubrum MTCC 296 assessed as diameter of growth inhibition zone at 25 ug/ml after 48-96 hr by agar cup diffusion method; conditions: read-out: DIZ
Candida albicans [11] = assay: Antimicrobial activity against Candida albicans MTCC 227 by agar cup diffusion method
Staphylococcus aureus [12] = assay: Antimicrobial activity against Staphylococcus aureus MTCC 96 assessed as diameter of growth inhibition zone at 50 ug/ml after 18-24 hr by agar cup diffusion method; conditions: read-out: DIZ
Aspergillus clavatus [13] = assay: Antimicrobial activity against Aspergillus clavatus MTCC 1323 assessed as diameter of growth inhibition zone at 25 ug/ml after 48-96 hr by agar cup diffusion method; conditions: read-out: DIZ
Trichophyton rubrum [14] = assay: Antimicrobial activity against Trichophyton rubrum MTCC 296 assessed as diameter of growth inhibition zone at 50 ug/ml after 48-96 hr by agar cup diffusion method; conditions: read-out: DIZ
Klebsiella pneumoniae [15] = assay: Antimicrobial activity against Klebsiella pneumoniae MTCC 109 assessed as diameter of growth inhibition zone at 250 ug/ml after 18-24 hr by agar cup diffusion method; conditions: read-out: DIZ
Escherichia coli [16] = assay: Antimicrobial activity against Escherichia coli MTCC 443 assessed as diameter of growth inhibition zone at 100 ug/ml after 18-24 hr by agar cup diffusion method; conditions: read-out: DIZ
Staphylococcus aureus [17] = assay: Antimicrobial activity against Staphylococcus aureus MTCC 96 assessed as diameter of growth inhibition zone at 250 ug/ml after 18-24 hr by agar cup diffusion method; conditions: read-out: DIZ
Candida albicans [18] = assay: Antimicrobial activity against Candida albicans MTCC 227 assessed as diameter of growth inhibition zone at 50 ug/ml after 48-96 hr by agar cup diffusion method; conditions: read-out: DIZ
Pseudomonas aeruginosa [19] = assay: Antimicrobial activity against Pseudomonas aeruginosa MTCC 1688 assessed as diameter of growth inhibition zone at 100 ug/ml after 18-24 hr by agar cup diffusion method; conditions: read-out: DIZ
Candida albicans [20] = assay: Antimicrobial activity against Candida albicans MTCC 227 assessed as diameter of growth inhibition zone at 100 ug/ml after 48-96 hr by agar cup diffusion method; conditions: read-out: DIZ
Pseudomonas aeruginosa [21] = assay: Antimicrobial activity against Pseudomonas aeruginosa MTCC 1688 assessed as diameter of growth inhibition zone at 25 ug/ml after 18-24 hr by agar cup diffusion method; conditions: read-out: DIZ
Klebsiella pneumoniae [22] = assay: Antimicrobial activity against Klebsiella pneumoniae MTCC 109 assessed as diameter of growth inhibition zone at 50 ug/ml after 18-24 hr by agar cup diffusion method; conditions: read-out: DIZ
Penicillium [23] = assay: Antimicrobial activity against Penicillium wild strain assessed as diameter of growth inhibition zone at 50 ug/ml after 48-96 hr by agar cup diffusion method; conditions: read-out: DIZ
Penicillium [24] = assay: Antimicrobial activity against Penicillium wild strain assessed as diameter of growth inhibition zone at 100 ug/ml after 48-96 hr by agar cup diffusion method; conditions: read-out: DIZ
Trichophyton rubrum [25] = assay: Antimicrobial activity against Trichophyton rubrum MTCC 296 by agar cup diffusion method
Aspergillus clavatus [26] = assay: Antimicrobial activity against Aspergillus clavatus MTCC 1323 assessed as diameter of growth inhibition zone at 100 ug/ml after 48-96 hr by agar cup diffusion method; conditions: read-out: DIZ
Escherichia coli [27] = assay: Antimicrobial activity against Escherichia coli MTCC 443 assessed as diameter of growth inhibition zone at 50 ug/ml after 18-24 hr by agar cup diffusion method; conditions: read-out: DIZ
Klebsiella pneumoniae [28] = assay: Antimicrobial activity against Klebsiella pneumoniae MTCC 109 assessed as diameter of growth inhibition zone at 100 ug/ml after 18-24 hr by agar cup diffusion method; conditions: read-out: DIZ
Trichophyton rubrum [29] = assay: Antimicrobial activity against Trichophyton rubrum MTCC 296 assessed as diameter of growth inhibition zone at 100 ug/ml after 48-96 hr by agar cup diffusion method; conditions: read-out: DIZ
Penicillium [30] = assay: Antimicrobial activity against Penicillium wild strain assessed as diameter of growth inhibition zone at 250 ug/ml after 48-96 hr by agar cup diffusion method; conditions: read-out: DIZ
Streptococcus pyogenes [31] = assay: Antimicrobial activity against Streptococcus pyogenes MTCC 442 by agar cup diffusion method
Escherichia coli [32] = assay: Antimicrobial activity against Escherichia coli MTCC 443 assessed as diameter of growth inhibition zone at 250 ug/ml after 18-24 hr by agar cup diffusion method; conditions: read-out: DIZ
Aspergillus clavatus [33] = assay: Antimicrobial activity against Aspergillus clavatus MTCC 1323 assessed as diameter of growth inhibition zone at 50 ug/ml after 48-96 hr by agar cup diffusion method; conditions: read-out: DIZ
Escherichia coli [34] = assay: Antimicrobial activity against Escherichia coli MTCC 443 by agar cup diffusion method
Staphylococcus aureus [35] = assay: Antimicrobial activity against Staphylococcus aureus MTCC 96 assessed as diameter of growth inhibition zone at 100 ug/ml after 18-24 hr by agar cup diffusion method; conditions: read-out: DIZ
Penicillium [36] = assay: Antimicrobial activity against Penicillium wild strain assessed as diameter of growth inhibition zone at 25 ug/ml after 48-96 hr by agar cup diffusion method; conditions: read-out: DIZ
Klebsiella pneumoniae [37] = assay: Antimicrobial activity against Klebsiella pneumoniae MTCC 109 by agar cup diffusion method
Pseudomonas aeruginosa [38] = assay: Antimicrobial activity against Pseudomonas aeruginosa MTCC 1688 assessed as diameter of growth inhibition zone at 50 ug/ml after 18-24 hr by agar cup diffusion method; conditions: read-out: DIZ
Staphylococcus aureus [39] = assay: Antimicrobial activity against Staphylococcus aureus MTCC 96 by agar cup diffusion method
Staphylococcus aureus [40] = assay: Antimicrobial activity against Staphylococcus aureus MTCC 96 assessed as diameter of growth inhibition zone at 25 ug/ml after 18-24 hr by agar cup diffusion method; conditions: read-out: DIZ
Streptococcus pyogenes [41] = assay: Antimicrobial activity against Streptococcus pyogenes MTCC 442 assessed as diameter of growth inhibition zone at 50 ug/ml after 18-24 hr by agar cup diffusion method; conditions: read-out: DIZ
Pseudomonas aeruginosa [42] = assay: Antimicrobial activity against Pseudomonas aeruginosa MTCC 1688 assessed as diameter of growth inhibition zone at 250 ug/ml after 18-24 hr by agar cup diffusion method; conditions: read-out: DIZ
Pseudomonas aeruginosa [43] = assay: Antimicrobial activity against Pseudomonas aeruginosa MTCC 1688 by agar cup diffusion method
Candida albicans [44] = assay: Antimicrobial activity against Candida albicans MTCC 227 assessed as diameter of growth inhibition zone at 25 ug/ml after 48-96 hr by agar cup diffusion method; conditions: read-out: DIZ
Escherichia coli [45] = assay: Antimicrobial activity against Escherichia coli MTCC 443 assessed as diameter of growth inhibition zone at 25 ug/ml after 18-24 hr by agar cup diffusion method; conditions: read-out: DIZ

SMILES: O=C(/C=C/c1ccc(O)cc1)C1C(=O)NC(=S)NC1=O
- zone of inhibition at 250 µg/mL (Streptococcus pyogenes [1]): 17 mm
- zone of inhibition at 100 µg/mL (Streptococcus pyogenes [2]): 16 mm
- MFC (Penicillium [3]): > 1000 µg/mL
- MIC (Penicillium [3]): > 1000 µg/mL
- zone of inhibition at 250 µg/mL (Trichophyton rubrum [4]): 24 mm
- zone of inhibition at 25 µg/mL (Klebsiella pneumoniae [5]): 10 mm
- MFC (Aspergillus clavatus [6]): 500 µg/mL (≈ 1720 µM)
- MIC (Aspergillus clavatus [6]): 500 µg/mL (≈ 1720 µM)
- zone of inhibition at 250 µg/mL (Aspergillus clavatus [7]): 24 mm
- zone of inhibition at 25 µg/mL (Streptococcus pyogenes [8]): 15 mm
- zone of inhibition at 250 µg/mL (Candida albicans [9]): 23 mm
- zone of inhibition at 25 µg/mL (Trichophyton rubrum [10]): 22 mm
- MFC (Candida albicans [11]): 500 µg/mL (≈ 1720 µM)
- MIC (Candida albicans [11]): > 1000 µg/mL
- zone of inhibition at 50 µg/mL (Staphylococcus aureus [12]): 14 mm
- zone of inhibition at 25 µg/mL (Aspergillus clavatus [13]): 21 mm
- zone of inhibition at 50 µg/mL (Trichophyton rubrum [14]): 22 mm
- zone of inhibition at 250 µg/mL (Klebsiella pneumoniae [15]): 18 mm
- zone of inhibition at 100 µg/mL (Escherichia coli [16]): 16 mm
- zone of inhibition at 250 µg/mL (Staphylococcus aureus [17]): 18 mm
- zone of inhibition at 50 µg/mL (Candida albicans [18]): 20 mm
- zone of inhibition at 100 µg/mL (Pseudomonas aeruginosa [19]): 16 mm
- zone of inhibition at 100 µg/mL (Candida albicans [20]): 23 mm
- zone of inhibition at 25 µg/mL (Pseudomonas aeruginosa [21]): 10 mm
- zone of inhibition at 50 µg/mL (Klebsiella pneumoniae [22]): 11 mm
- zone of inhibition at 50 µg/mL (Penicillium [23]): 19 mm
- zone of inhibition at 100 µg/mL (Penicillium [24]): 22 mm
- MFC (Trichophyton rubrum [25]): > 1000 µg/mL
- MIC (Trichophyton rubrum [25]): > 1000 µg/mL
- zone of inhibition at 100 µg/mL (Aspergillus clavatus [26]): 22 mm
- zone of inhibition at 50 µg/mL (Escherichia coli [27]): 17 mm
- zone of inhibition at 100 µg/mL (Klebsiella pneumoniae [28]): 16 mm
- zone of inhibition at 100 µg/mL (Trichophyton rubrum [29]): 24 mm
- zone of inhibition at 250 µg/mL (Penicillium [30]): 24 mm
- MBC (Streptococcus pyogenes [31]): 250 µg/mL (≈ 861 µM)
- MIC (Streptococcus pyogenes [31]): 100 µg/mL (≈ 344 µM)
- zone of inhibition at 250 µg/mL (Escherichia coli [32]): 17 mm
- zone of inhibition at 50 µg/mL (Aspergillus clavatus [33]): 21 mm
- MBC (Escherichia coli [34]): 250 µg/mL (≈ 861 µM)
- MIC (Escherichia coli [34]): 250 µg/mL (≈ 861 µM)
- zone of inhibition at 100 µg/mL (Staphylococcus aureus [35]): 16 mm
- zone of inhibition at 25 µg/mL (Penicillium [36]): 18 mm
- MBC (Klebsiella pneumoniae [37]): 200 µg/mL (≈ 689 µM)
- MIC (Klebsiella pneumoniae [37]): 125 µg/mL (≈ 431 µM)
- zone of inhibition at 50 µg/mL (Pseudomonas aeruginosa [38]): 14 mm
- MBC (Staphylococcus aureus [39]): 500 µg/mL (≈ 1720 µM)
- MIC (Staphylococcus aureus [39]): 250 µg/mL (≈ 861 µM)
- zone of inhibition at 25 µg/mL (Staphylococcus aureus [40]): 10 mm
- zone of inhibition at 50 µg/mL (Streptococcus pyogenes [41]): 17 mm
- zone of inhibition at 250 µg/mL (Pseudomonas aeruginosa [42]): 18 mm
- MBC (Pseudomonas aeruginosa [43]): 500 µg/mL (≈ 1720 µM)
- MIC (Pseudomonas aeruginosa [43]): 250 µg/mL (≈ 861 µM)
- zone of inhibition at 25 µg/mL (Candida albicans [44]): 16 mm
- zone of inhibition at 25 µg/mL (Escherichia coli [45]): 15 mm

Source: ChEMBL document CHEMBL3044736, “Synthesis, characterization, solvatochromic properties, and antimicrobial evaluation of 5-acetyl-2-thioxo-dihydro-pyrimidine-4,6-dione-based chalcones” (2013)
